Test results taken from ChEMBL document CHEMBL1201862, “PubChem BioAssay data set” (2004).
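Growth conditions: 96-well plates. Treatment: test compound, 48 hours, 5 concentrations. Analysis: linear interpolation between bracketing concentrations; unreached endpoints set to highest concentration. GI50 is the concentration that inhibits growth by half.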 Calls of active or inactive are those of the source. No stated cut-off is given here; in the data, active = GI50 up to about 1.1 µM and inactive = higher.

Legend:
Experiment in all cases: NCI-60 cell line screen, 48 h
[1] = test system: 786-0
[2] = test system: A498
[3] = test system: A549
[4] = test system: ACHN
[5] = test system: BT-549
[6] = test system: CAKI-1
[7] = test system: CCRF-CEM
[8] = test system: COLO 205
[9] = test system: DU-145
[10] = test system: EKVX
[11] = test system: HCC 2998
[12] = test system: HCT-116
[13] = test system: HCT-15
[14] = test system: HL-60
[15] = test system: HOP-62
[16] = test system: HOP-92
[17] = test system: HT-29
[18] = test system: IGROV-1
[19] = test system: K562
[20] = test system: KM12
[21] = test system: LOX IMVI
[22] = test system: M14
[23] = test system: MCF7
[24] = test system: MDA-MB-231
[25] = test system: MDA-MB-435
[26] = test system: MDA-N
[27] = test system: MOLT-4
[28] = test system: NCI-H226
[29] = test system: NCI-H23
[30] = test system: NCI-H522
[31] = test system: NCI/ADR-RES
[32] = test system: OVCAR-3
[33] = test system: OVCAR-4
[34] = test system: OVCAR-5
[35] = test system: OVCAR-8
[36] = test system: PC-3
[37] = test system: RPMI-8226
[38] = test system: SF-268
[39] = test system: SF-295
[40] = test system: SF-539
[41] = test system: SK-MEL-28
[42] = test system: SK-MEL-2
[43] = test system: SK-MEL-5
[44] = test system: SK-OV-3
[45] = test system: SN12C
[46] = test system: SNB-19
[47] = test system: SR
[48] = test system: SW-620
[49] = test system: T47D
[50] = test system: TK-10
[51] = test system: U-251
[52] = test system: UACC-257
[53] = test system: UACC-62
[54] = test system: UO-31
[55] = test system: Hs-578T
[56] = test system: Malme-3M
[57] = test system: NCI-H460
[58] = test system: RXF 393
[59] = test system: SNB-75

Question: For `CCC[C@@H](O)C[C@@H]1CCC[C@H](C[C@@H](O)CC)N1C`, which GI50 [1] is on record?
Answer: The GI50 was > 100 µM (inactive).

Question: What about the GI50 [2] of the same compound?
Answer: Its GI50 is > 100 µM (inactive).

Question: And the GI50 [3]?
Answer: Its GI50 is > 100 µM (inactive).

Question: What about the GI50 [4] of the same compound?
Answer: Its GI50 is > 100 µM (inactive).

Question: What about the GI50 [5] of the same compound?
Answer: The GI50 was 76.4 µM (inactive).

Question: What about the GI50 [6] of the same compound?
Answer: Its GI50 is > 100 µM (inactive).

Question: What about the GI50 [7] of the same compound?
Answer: The GI50 was > 100 µM (inactive).

Question: What about the GI50 [8] of the same compound?
Answer: Its GI50 is > 100 µM (inactive).

Question: And the GI50 [9]?
Answer: Its GI50 is > 100 µM (inactive).

Question: What about the GI50 [10] of the same compound?
Answer: Its GI50 is 29.7 µM (inactive).

Question: And the GI50 [11]?
Answer: The GI50 was > 100 µM (inactive).

Question: And the GI50 [12]?
Answer: The GI50 was > 100 µM (inactive).

Question: What about the GI50 [13] of the same compound?
Answer: The GI50 was > 100 µM.

Question: And the GI50 [14]?
Answer: The GI50 was > 100 µM (inactive).

Question: And the GI50 [15]?
Answer: The GI50 was > 100 µM (inactive).

Question: What about the GI50 [16] of the same compound?
Answer: The GI50 was < 0.01 µM (active).

Question: What about the GI50 [17] of the same compound?
Answer: Its GI50 is > 100 µM (inactive).

Question: What about the GI50 [18] of the same compound?
Answer: Its GI50 is > 100 µM (inactive).

Question: And the GI50 [19]?
Answer: The GI50 was > 100 µM (inactive).

Question: And the GI50 [20]?
Answer: Its GI50 is > 100 µM (inactive).

Question: And the GI50 [21]?
Answer: Its GI50 is 88.1 µM (inactive).

Question: What about the GI50 [22] of the same compound?
Answer: Its GI50 is > 100 µM (inactive).

Question: What about the GI50 [23] of the same compound?
Answer: The GI50 was > 100 µM (inactive).

Question: What about the GI50 [24] of the same compound?
Answer: The GI50 was > 100 µM (inactive).

Question: What about the GI50 [25] of the same compound?
Answer: The GI50 was > 100 µM (inactive).

Question: What about the GI50 [26] of the same compound?
Answer: The GI50 was > 100 µM (inactive).

Question: What about the GI50 [27] of the same compound?
Answer: The GI50 was > 100 µM (inactive).

Question: And the GI50 [28]?
Answer: Its GI50 is > 100 µM (inactive).

Question: And the GI50 [29]?
Answer: Its GI50 is > 100 µM (inactive).

Question: And the GI50 [30]?
Answer: Its GI50 is 11.7 µM (inactive).

Question: What about the GI50 [31] of the same compound?
Answer: The GI50 was > 100 µM (inactive).

Question: What about the GI50 [32] of the same compound?
Answer: Its GI50 is > 100 µM (inactive).

Question: And the GI50 [33]?
Answer: Its GI50 is > 100 µM (inactive).

Question: And the GI50 [34]?
Answer: The GI50 was > 100 µM (inactive).

Question: What about the GI50 [35] of the same compound?
Answer: The GI50 was > 100 µM (inactive).

Question: And the GI50 [36]?
Answer: The GI50 was > 100 µM (inactive).

Question: And the GI50 [37]?
Answer: Its GI50 is > 100 µM (inactive).

Question: What about the GI50 [38] of the same compound?
Answer: Its GI50 is 17.9 µM (inactive).

Question: And the GI50 [39]?
Answer: Its GI50 is > 100 µM (inactive).

Question: What about the GI50 [40] of the same compound?
Answer: Its GI50 is > 100 µM (inactive).

Question: What about the GI50 [41] of the same compound?
Answer: The GI50 was > 100 µM (inactive).

Question: And the GI50 [42]?
Answer: The GI50 was > 100 µM (inactive).

Question: What about the GI50 [43] of the same compound?
Answer: Its GI50 is > 100 µM (inactive).

Question: And the GI50 [44]?
Answer: The GI50 was > 100 µM (inactive).

Question: And the GI50 [45]?
Answer: Its GI50 is > 100 µM (inactive).

Question: What about the GI50 [46] of the same compound?
Answer: Its GI50 is > 100 µM (inactive).

Question: What about the GI50 [47] of the same compound?
Answer: The GI50 was > 100 µM (inactive).

Question: And the GI50 [48]?
Answer: The GI50 was > 100 µM (inactive).

Question: What about the GI50 [49] of the same compound?
Answer: The GI50 was > 100 µM (inactive).

Question: And the GI50 [50]?
Answer: Its GI50 is > 100 µM (inactive).

Question: And the GI50 [51]?
Answer: Its GI50 is > 100 µM (inactive).

Question: And the GI50 [52]?
Answer: The GI50 was > 100 µM (inactive).

Question: What about the GI50 [53] of the same compound?
Answer: Its GI50 is > 100 µM (inactive).

Question: What about the GI50 [54] of the same compound?
Answer: Its GI50 is > 100 µM (inactive).

Question: Which results are given for `CCOC(=O)c1nc2ccccc2nc1Nc1ccc(OC)cc1`?
Answer: GI50 [1]: 27.6 µM (inactive); GI50 [2]: 18.6 µM (inactive); GI50 [3]: 51.2 µM (inactive); GI50 [4]: 32.4 µM (inactive); GI50 [5]: 24 µM (inactive); GI50 [6]: 13.8 µM (inactive); GI50 [7]: > 100 µM (inactive); GI50 [8]: > 100 µM (inactive); GI50 [9]: 73.1 µM (inactive); GI50 [10]: 47.8 µM (inactive); GI50 [11]: > 100 µM (inactive); GI50 [12]: 42.3 µM (inactive); GI50 [13]: > 100 µM; GI50 [14]: > 100 µM (inactive); GI50 [15]: 15 µM (inactive); GI50 [16]: 22.5 µM (inactive); GI50 [17]: > 100 µM (inactive); GI50 [55]: 41.2 µM (inactive); GI50 [18]: 50.6 µM (inactive); GI50 [19]: > 100 µM (inactive); GI50 [20]: > 100 µM (inactive); GI50 [21]: > 100 µM (inactive); GI50 [22]: > 100 µM (inactive); GI50 [23]: > 100 µM (inactive); GI50 [24]: 20.6 µM (inactive); GI50 [25]: > 100 µM (inactive); GI50 [27]: > 100 µM (inactive); GI50 [56]: 93.8 µM (inactive); GI50 [28]: 37.5 µM (inactive); GI50 [29]: 54.2 µM (inactive); GI50 [57]: 40 µM (inactive); GI50 [30]: 23.8 µM (inactive); GI50 [31]: 34.8 µM (inactive); GI50 [32]: 19.7 µM (inactive); GI50 [33]: 18.5 µM (inactive); GI50 [34]: 83.8 µM (inactive); GI50 [35]: 73.3 µM (inactive); GI50 [36]: 31.4 µM (inactive); GI50 [37]: > 100 µM (inactive); GI50 [58]: 17.5 µM (inactive); GI50 [38]: 51.6 µM (inactive); GI50 [39]: 19.5 µM (inactive); GI50 [40]: 22 µM (inactive); GI50 [41]: 54.7 µM (inactive); GI50 [42]: 33.7 µM (inactive); GI50 [43]: 30 µM (inactive); GI50 [45]: 14.8 µM (inactive); GI50 [46]: 16.5 µM (inactive); GI50 [59]: 37.9 µM (inactive); GI50 [47]: > 100 µM (inactive); GI50 [48]: > 100 µM (inactive); GI50 [49]: 43.5 µM (inactive); GI50 [50]: 25.7 µM (inactive); GI50 [51]: 35.1 µM (inactive); GI50 [52]: 49.5 µM (inactive); GI50 [53]: 28.5 µM (inactive); GI50 [54]: 88.7 µM (inactive)
